Results reported in patent publication US11731964B2, “Benzamide antibacterial agents” (Purdue Research Foundation, priority 2018, dated 2023).
In brackets after ≈: the same amount, converted by molar mass.

How the values were obtained:
Assay type in all cases: cell-based
S. aureus [1] = assay: Screening of compounds for growth inhibition of S. aureus at 16 μg/mL (OD600); conditions: compound at 16 μg/mL, 24 hours, compared to DMSO control
Procedure: Library compounds and analogs of F6 were dissolved in DMSO at 10 mg/mL. S. aureus was cultured in Mueller Hinton Broth to early exponential phase at which point culture aliquots were incubated with compounds at 16 μg/mL or DMSO in duplicates. The culture was continued at 37° C. for 24 hours. Aliquots (100 μL) of the cultures were dispensed into clear 96 well microtiter plates and OD600 was recorded. Percent normalized OD600 was obtained by using the equation [formula] wherein for a given compound, X is the OD600 of culture with the compound, Xo is that of media only and XT is the OD600 of the DMSO control.

E. faecalis ATCC 29212 = assay: MIC, broth microdilution; conditions: Enterococcus faecalis, ATCC29212; E. faecalis ATCC 29212; read-out: MIC
Procedure: (§1) Bacteria were cultured in cation-adjusted Mueller Hinton Broth (for strains in Tables 1 and 4) or Brain Heart Infusion broth (for Enterococcus faecium) or Tryptic Soy Broth (all other bacteria) in a 96-well plate at 37° C. for at least 20 hours. The MIC was classified as the lowest concentration where no visual growth of bacteria was observed. The minimum bactericidal concentration (MBC) was tested by spotting 4 μL from wells with no growth onto Tryptic Soy Agar (TSA) plates. Plates were incubated at 37° C. for at least 18 hours before recording the MBC.

[2] = test system: L. monocytogenes ATCC 19115; assay: MIC, broth microdilution; conditions: Listeria monocytogenes, ATCC19115; L. monocytogenes ATCC 19115; read-out: MIC
Procedure: as §1

MRSA ATCC 33592 = assay: MIC, broth microdilution; conditions: Staphylococcus aureus; MRSA ATCC 33592; read-out: MIC
Procedure: as §1

S. aureus ATCC 25923 = assay: MIC, broth microdilution; conditions: Staphylococcus aureus, ATCC25923; S. aureus ATCC 25923; read-out: MIC
Procedure: as §1

[3] = test system: VRE (E. faecalis) ATCC 51575; assay: MIC, broth microdilution; conditions: VRE (E. faecalis) ATCC 51575; read-out: MIC
Procedure: as §1

E. faecalis = assay: MIC (Table 5, strain not given); conditions: Enterococcus faecalis; E. faecalis (Table 5)
Procedure: as §1

S. aureus [4] = assay: MIC (Table 5, strain not given); conditions: Staphylococcus aureus; S. aureus (Table 5)
Procedure: as §1

VRE = assay: MIC (Table 5, strain not given); conditions: Enterococcus; VRE (Table 5)
Procedure: as §1

Structure (SMILES)	inhibition of growth of S. aureus (S. aureus [1])	MIC (MRSA ATCC 33592) [µg/mL]	MIC (S. aureus [4]) [µg/mL]	other results
CN(C)S(=O)(=O)c1ccc(C(=O)Nc2nnc(-c3ccc(F)cc3)o2)cc1 [Compound F3]	significantly inhibited the growth	16 (≈ 41 µM)		MIC (E. faecalis ATCC 29212): 32 µg/mL (≈ 82 µM); MIC [2]: 32 µg/mL (≈ 82 µM); MIC (S. aureus ATCC 25923): 16 µg/mL (≈ 41 µM); MIC [3]: 32 µg/mL (≈ 82 µM)
O=C(Nc1nnc(-c2cccs2)s1)c1ccc(S(=O)(=O)N2CCCCC2)cc1 [Compound F4]	significantly inhibited the growth	16 (≈ 36.8 µM)		MIC (E. faecalis ATCC 29212): 32 µg/mL (≈ 73.6 µM); MIC [2]: 16 µg/mL (≈ 36.8 µM); MIC (S. aureus ATCC 25923): 16 µg/mL (≈ 36.8 µM); MIC [3]: 32 µg/mL (≈ 73.6 µM)
CC1CC(C)CN(S(=O)(=O)c2ccc(C(=O)Nc3nnc(C4CCCO4)s3)cc2)C1 (stereo not shown) [Compound F6-2, 4-((3,5-Dimethylpiperidin-1-yl)sulfonyl)-N-(5-(tetrahydrofuran-2-yl)-1,3,4-thiadiazol-2-yl)benzamide]	inactive			
CCOC(=O)c1nnc(NC(=O)c2ccc(S(=O)(=O)N3CC(C)CC(C)C3)cc2)o1 (stereo not shown) [Compound F6-3, Ethyl 5-(4-((3,5-dimethylpiperidin-1-yl)sulfonyl)benzamido)-1,3,4-oxadiazole-2-carboxylate]	inactive			
CC1CC(C)CN(S(=O)(=O)c2ccc(-c3nnc(-c4cccs4)o3)cc2)C1 (stereo not shown) [Compound F6-4, 2-(4-((3,5-Dimethylpiperidin-1-yl)sulfonyl)phenyl)-5-(thiophen-2-yl)-1,3,4-oxadiazole]	not active			
CC1CC(C)CN(S(=O)(=O)c2ccc(C(=O)Nc3nnc(-c4cccs4)[nH]3)cc2)C1 (stereo not shown) [Compound F6-6, 4-((3,5-Dimethylpiperidin-1-yl)sulfonyl)-N-(5-(thiophen-2-yl)-4H-1,2,4-triazol-3-yl)benzamide]	activity was lost			
CC1CC(C)CN(S(=O)(=O)c2ccc(C(=O)Nc3nnc(-c4cccs4)s3)cc2)C1 (stereo not shown) [Compound F6-7, 4-((3,5-Dimethylpiperidin-1-yl)sulfonyl)-N-(5-(thiophen-2-yl)-1,3,4-thiadiazol-2-yl)benzamide]	activity was lost			
O=C(Nc1nnc(-c2ccco2)o1)c1ccc(S(=O)(=O)N2CCOCC2)cc1 [Compound F9]	not active			
CN(CC1CCCO1)S(=O)(=O)c1ccc(C(=O)Nc2nnc(-c3ccccc3)o2)cc1 (stereo not shown) [Compound G9]	only slightly inhibited growth			
O=C(Nc1nnc(-c2cccs2)o1)c1ccc(S(=O)(=O)Cc2ccccc2)cc1 [HSGN-104, 4-(benzylsulfonyl)-N-(5-(thiophen-2-yl)-1,3,4-oxadiazol-2-yl)benzamide]		32 (≈ 75.2 µM)	64 (≈ 150 µM)	MIC (E. faecalis): 64 µg/mL (≈ 150 µM); MIC (VRE): > 128 µg/mL
C[C@@H]1C[C@H](C)CN(S(=O)(=O)c2ccc(C(=O)Nc3nnc(-c4cccc(Cl)c4)o3)cc2)C1 [HSGN-110, N-(5-(3-chlorophenyl)-1,3,4-oxadiazol-2-yl)-4-(((3S,5R)-3,5-dimethylpiperidin-1-yl)sulfonyl)benzamide]		0.5 (≈ 1.05 µM)	1 (≈ 2.11 µM)	MIC (E. faecalis): 1 µg/mL (≈ 2.11 µM); MIC (VRE): 2 µg/mL (≈ 4.21 µM)
C[C@@H]1C[C@H](C)CN(S(=O)(=O)c2ccc(C(=O)Nc3nnc(-c4cccc(F)c4)o3)cc2)C1 [HSGN-111, 4-(((3S,5R)-3,5-dimethylpiperidin-1-yl)sulfonyl)-N-(5-(3-fluorophenyl)-1,3,4-oxadiazol-2-yl)benzamide]		0.5 (≈ 1.09 µM)	2 (≈ 4.36 µM)	MIC (E. faecalis): 2 µg/mL (≈ 4.36 µM); MIC (VRE): 2 µg/mL (≈ 4.36 µM)
COc1cccc(-c2nnc(NC(=O)c3ccc(S(=O)(=O)N4C[C@H](C)C[C@H](C)C4)cc3)o2)c1 [HSGN-112, 4-(((3S,5R)-3,5-dimethylpiperidin-1-yl)sulfonyl)-N-(5-(3-methoxyphenyl)-1,3,4-oxadiazol-2-yl)benzamide]		2 (≈ 4.25 µM)	4 (≈ 8.5 µM)	MIC (E. faecalis): 8 µg/mL (≈ 17 µM); MIC (VRE): 4 µg/mL (≈ 8.5 µM)
C[C@@H]1C[C@H](C)CN(S(=O)(=O)c2ccc(C(=O)Nc3nnc(-c4cccc(C(F)(F)F)c4)o3)cc2)C1 [HSGN-122, 4-(((3S,5R)-3,5-dimethylpiperidin-1-yl)sulfonyl)-N-(5-(3-(trifluoromethyl)phenyl)-1,3,4-oxadiazol-2-yl)benzamide]		1 (≈ 1.97 µM)	2 (≈ 3.93 µM)	MIC (E. faecalis): 4 µg/mL (≈ 7.87 µM); MIC (VRE): 8 µg/mL (≈ 15.7 µM)
Cc1nc(C)c(-c2nnc(NC(=O)c3ccc(S(=O)(=O)N4C[C@H](C)C[C@H](C)C4)cc3)o2)s1 [HSGN-123, 4-(((3S,5R)-3,5-dimethylpiperidin-1-yl)sulfonyl)-N-(5-(2,4-dimethylthiazol-5-yl)-1,3,4-oxadiazol-2-yl)benzamide]		8 (≈ 16.8 µM)	16 (≈ 33.6 µM)	MIC (E. faecalis): 32 µg/mL (≈ 67.3 µM); MIC (VRE): 64 µg/mL (≈ 135 µM)
C[C@@H]1C[C@H](C)CN(S(=O)(=O)c2ccc(C(=O)Nc3nnc(-c4cccc(C(=N)NO)c4)o3)cc2)C1 [HSGN-151, 4-(((3S,5R)-3,5-dimethylpiperidin-1-yl)sulfonyl)-N-(5-(3-(N-hydroxycarbamimidoyl)phenyl)-1,3,4-oxadiazol-2-yl)benzamide]		> 64	> 64	
C[C@@H]1C[C@H](C)CN(S(=O)(=O)c2ccc(C(=O)Nc3ccc4[nH]c(=O)oc4c3)cc2)C1 [HSGN-158, 4-(((3S,5R)-3,5-dimethylpiperidin-1-yl)sulfonyl)-N-(2-oxo-2,3-dihydrobenzo[d]oxazol-6-yl)benzamide]		> 64	> 64	
O=C1CN(S(=O)(=O)c2ccc(C(=O)Nc3nnc(-c4ccc(C(F)(F)F)cc4)o3)cc2)CCN1 [HSGN-162, 4-((3-oxopiperazin-1-yl)sulfonyl)-N-(5-(4-(trifluoromethyl)phenyl)-1,3,4-oxadiazol-2-yl)benzamide]		> 64	> 64	
C[C@@H]1C[C@H](C)CN(S(=O)(=O)c2cccc(C(=O)Nc3nnc(-c4ccc(C(F)(F)F)cc4)o3)c2)C1 [HSGN-176, 3-(((3S,5R)-3,5-dimethylpiperidin-1-yl)sulfonyl)-N-(5-(4-(trifluoromethyl)phenyl)-1,3,4-oxadiazol-2-yl)benzamide]		8 (≈ 15.7 µM)	8 (≈ 15.7 µM)	
Cc1ccc(C(=O)Nc2nnc(-c3ccc(C(F)(F)F)cc3)o2)cc1S(=O)(=O)N1C[C@H](C)C[C@H](C)C1 [HSGN-177, 3-(((3S,5R)-3,5-dimethylpiperidin-1-yl)sulfonyl)-4-methyl-N-(5-(4-(trifluoromethyl)phenyl)-1,3,4-oxadiazol-2-yl)benzamide]		1 (≈ 1.91 µM)	2 (≈ 3.83 µM)	
C[C@@H]1C[C@H](C)CN(S(=O)(=O)c2ccc(C(=O)Nc3nnc(-c4ccccc4)o3)cc2)C1 [HSGN-180, 4-(((3S,5R)-3,5-dimethylpiperidin-1-yl)sulfonyl)-N-(5-phenyl-1,3,4-oxadiazol-2-yl)benzamide]		4 (≈ 9.08 µM)	4 (≈ 9.08 µM)	
Cc1ccc(-c2nnc(NC(=O)c3ccc(S(=O)(=O)N4C[C@H](C)C[C@H](C)C4)cc3)o2)cc1 [HSGN-181, 4-(((3S,5R)-3,5-dimethylpiperidin-1-yl)sulfonyl)-N-(5-(p-tolyl)-1,3,4-oxadiazol-2-yl)benzamide]		8 (≈ 17.6 µM)	16 (≈ 35.2 µM)	
C[C@@H]1C[C@H](C)CN(S(=O)(=O)c2ccc(C(=O)Nc3nnc(-c4ccc(F)cc4F)o3)cc2)C1 [HSGN-182, N-(5-(2,4-difluorophenyl)-1,3,4-oxadiazol-2-yl)-4-(((3S,5R)-3,5-dimethylpiperidin-1-yl)sulfonyl)benzamide]		8 (≈ 16.8 µM)	8 (≈ 16.8 µM)	
Cc1cc(C(=O)Nc2nnc(-c3ccc(C(F)(F)F)cc3)o2)ccc1S(=O)(=O)N1C[C@H](C)C[C@H](C)C1 [HSGN-189, 4-(((3S,5R)-3,5-dimethylpiperidin-1-yl)sulfonyl)-3-methyl-N-(5-(4-(trifluoromethyl)phenyl)-1,3,4-oxadiazol-2-yl)benzamide]		0.25 (≈ 0.478 µM)	0.25 (≈ 0.478 µM)	
CCCCOc1ccc(-c2nnc(NC(=O)c3ccc(S(=O)(=O)N4C[C@H](C)C[C@H](C)C4)cc3)o2)cc1 [HSGN-191, N-(5-(4-butoxyphenyl)-1,3,4-oxadiazol-2-yl)-4-(((3S,5R)-3,5-dimethylpiperidin-1-yl)sulfonyl)benzamide]		16 (≈ 31.2 µM)	16 (≈ 31.2 µM)	
Cc1cc(C(=O)Nc2nnc(-c3ccc(C(F)(F)F)cc3)o2)ccc1S(=O)(=O)N1CCC(C)CC1 [HSGN-195, 3-methyl-4-((4-methylpiperidin-1-yl)sulfonyl)-N-(5-(4-(trifluoromethyl)phenyl)-1,3,4-oxadiazol-2-yl)benzamide]		0.5 (≈ 0.983 µM)	1 (≈ 1.97 µM)	
COc1cccc(OC)c1C(=O)N[C@@H]1C(=O)N2[C@@H]1SC(C)(C)[C@@H]2C(=O)O [Methicillin, reference compound]		> 128		MIC (S. aureus ATCC 25923): 2 µg/mL (≈ 5.26 µM)
